In publication PMC5700336, “The Gastrointestinal Tract Is a Major Source of Echinocandin Drug Resistance in a Murine Model of Candida glabrata Colonization and Systemic Dissemination” (Antimicrobial Agents and Chemotherapy, 2017):

Assays:
[1] = Single-dose pharmacokinetics in plasma and GI lumen contents; type: in vivo, mice; conditions: LC-MS/MS; for large intestine mean Cmax / small intestine mean Cmax: lumen contents, mean of three mice
Protocol: Mice were colonized with ATCC 2001 and then treated (i.p.) once with 5 or 20 mg/kg caspofungin at time zero (2 days postinoculation). Three mice from each treatment group were sacrificed at each time point (0, 1, 2, 4, 8, 16, 24, and 48 h), and blood and small and large intestinal lumen contents (without intestinal walls) were collected. Fecal pellets were also collected from mice at 0, 4, 16, 24, and 48 h prior to sacrifice. Caspofungin levels in plasma and GI compartments were measured by liquid chromatography-tandem mass spectrometry (LC-MS/MS) in electrospray positive-ionization mode (ESI+) on an AB Sciex QTrap 4000 triple-quadrupole mass spectrometer combined with an Agilent 1260 high-performance liquid chromatograph (HPLC) using the Analyst software and multiple-reaction monitoring (MRM) of precursor/product transitions. The MRM transitions used were 547.50/538.40 for caspofungin and 455.4/165.2 for the internal standard verapamil. Chromatography was performed with an Agilent Zorbax SB-C8 column (2.1 by 30 mm; particle size, 3.5 μm) using a reverse-phase gradient elution. One-tenth percent formic acid in Milli-Q deionized water was used for the aqueous mobile phase and 0.1% formic acid in acetonitrile (ACN) for the organic mobile phase. Small and large intestinal contents were homogenized prior to extraction by combining 3 parts PBS buffer to 1 part GI tract contents. One milligram per milliliter dimethyl sulfoxide (DMSO) stock was serially diluted in 50/50 ACN-water to create standard curves and quality control spiking solutions. Twenty microliters of neat spiking solutions was added to 20 μl of drug-free mouse K2EDTA plasma (Bioreclamation) or GI tract homogenate, and extraction was performed by adding 200 μl of acetonitrile-methanol 50/50 protein precipitation solvent containing 10 ng/ml verapamil (Sigma). Extracts were vortexed for 5 min and centrifuged at 4,000 rpm for 5 min. The supernatants were analyzed by LC-MS. Sample analysis was accepted if the concentrations of the quality control samples were within 20% of the nominal concentration.

[2] = tested on: C. glabrata ATCC 2001; assay: GI yeast burden after a single caspofungin dose; type: in vivo, Candida glabrata
[3] = tested on: C. glabrata 2001 Δmsh2; assay: Systemic breakthrough (blood and organs) after dexamethasone immunosuppression; type: in vivo, Candida glabrata; conditions: day 15
Protocol: Six-week-old female outbred CF-1 immunocompetent mice (Charles River Laboratories) were treated (subcutaneously [s.c.]) with 320 mg/kg of piperacillin-tazobactam (PTZ; 8:1 ratio) beginning on day −2 to clear native intestinal bacterial flora. Daily PTZ treatment was maintained throughout the experiment (see Fig. 3A). On day 0, mice were inoculated via oral gavage with approximately 1.5 × 10^8 CFU of C. glabrata in 100 μl of saline. Mice were colonized with ATCC 2001 (CBS 138), clinical strains from the Perlin Laboratory collection, or mutator strain 2001 Δmsh2 ([19]). Fresh fecal samples were collected throughout the experiment to assess fungal burden in the GI tract. Daily administration of caspofungin (0.5, 5, or 20 mg/kg, i.p.), nikkomycin Z (100 mg/kg, oral) (Sigma), or saline (100 μl i.p.) was initiated on day 3 postinoculation and continued through sacrifice day (typically day 15). Caspofungin-resistant colony frequencies were determined through selection of fecal samples on yeast extract-peptone-dextrose (YPD) plates supplemented with caspofungin (2 μg/ml), PTZ (16 μg/ml), and chloramphenicol (20 μg/ml). The corticosteroid dexamethasone (DMX) was administered twice daily (100 mg/kg, i.p.) for 3 days (days 12 to 14) prior to euthanization (day 15; Fig. 3A). […]

[4] = tested on: C. glabrata 2001 Δmsh2; assay: Murine C. glabrata GI colonization model: GI/fecal burden under daily treatment; type: in vivo, Candida glabrata
Protocol: Six-week-old female outbred CF-1 immunocompetent mice (Charles River Laboratories) were treated (subcutaneously [s.c.]) with 320 mg/kg of piperacillin-tazobactam (PTZ; 8:1 ratio) beginning on day −2 to clear native intestinal bacterial flora. Daily PTZ treatment was maintained throughout the experiment (see Fig. 3A). On day 0, mice were inoculated via oral gavage with approximately 1.5 × 10^8 CFU of C. glabrata in 100 μl of saline. Mice were colonized with ATCC 2001 (CBS 138), clinical strains from the Perlin Laboratory collection, or mutator strain 2001 Δmsh2 ([19]). Fresh fecal samples were collected throughout the experiment to assess fungal burden in the GI tract. Daily administration of caspofungin (0.5, 5, or 20 mg/kg, i.p.), nikkomycin Z (100 mg/kg, oral) (Sigma), or saline (100 μl i.p.) was initiated on day 3 postinoculation and continued through sacrifice day (typically day 15). Caspofungin-resistant colony frequencies were determined through selection of fecal samples on yeast extract-peptone-dextrose (YPD) plates supplemented with caspofungin (2 μg/ml), PTZ (16 μg/ml), and chloramphenicol (20 μg/ml). The corticosteroid dexamethasone (DMX) was administered twice daily (100 mg/kg, i.p.) for 3 days (days 12 to 14) prior to euthanization (day 15; Fig. 3A). Blood, kidneys, liver, spleen, and the gastrointestinal tract components were collected on day 15 (or earlier where indicated), homogenized, and plated onto YPD plates supplemented with chloramphenicol (75 μg/ml) and ampicillin (50 μg/ml) to determine CFU levels.

[5] = tested on: C. glabrata Δmsh2 mutant cells; assay: In vitro caspofungin-resistant colony frequency after nikkomycin pretreatment; type: cell-based, Candida glabrata; conditions: cells incubated with nikkomycin Z for 2 h prior to plating on agar with 2 μg/ml caspofungin
Protocol: FIG 4 Nikkomycin reduces C. glabrata caspofungin resistance and tolerance formation in vitro. (A) Caspofungin-resistant colony frequencies following selection on agar plates containing 2 μg/ml caspofungin. Cells were incubated with the indicated concentrations of nikkomycin Z for 2 h prior to plating. (B) Killing assay with strains grown in the presence or absence of 128 μg/ml nikkomycin Z (Nz) and increasing concentrations of caspofungin. The mean counts from three independent biological experiments ± standard deviations are shown.

[6] = tested on: C. glabrata wild-type and Δmsh2 cells; assay: In vitro killing assay; type: cell-based, Candida glabrata; conditions: 128 μg/ml nikkomycin Z, caspofungin 0.016 to 32 μg/ml, RPMI, 37°C, 24 h; three independent experiments
Protocol: Fresh 1-ml RPMI cultures (plus necessary amino acids) of C. glabrata (1 × 10^7 cells) were incubated at 37°C while shaking (165 rpm) for 24 h in 2-fold increasing concentrations (0.016 to 32 μg/ml) of caspofungin and in the presence (128 μg/ml) or absence of nikkomycin Z. After 24 h, 100 μl of the appropriate dilutions for each culture was plated onto YPD plates. CFU were counted 24 h after plating and data represented as the CFU per milliliter that survived at each concentration of drug.

[7] = single i.p. dose, both 5 and 20 mg/kg, lumen contents without intestinal walls, three mice per time point

| Structure (SMILES) | Tmax ([1]; mouse, plasma, ip, single i.p. dose, both 5 and 20 mg/kg, colonized CF-1 mice, three mice per time point, read-out: time of Cmax, plasma) [h] | large intestine mean Cmax ([1]; single i.p. dose 5 mg/kg) [ng/mL] | small intestine mean Cmax ([1]; single i.p. dose 5 mg/kg) [ng/mL] | large intestine mean Cmax ([1]; single i.p. dose 20 mg/kg) [ng/mL] | small intestine mean Cmax ([1]; single i.p. dose 20 mg/kg) [ng/mL] | time of Cmax, large intestine [1, 7] [h] | time of Cmax, small intestine [1, 7] [h] | GI burden levels after single dose ([2]; single i.p. dose 5 mg/kg) | GI burden levels after single dose ([2]; single i.p. dose 20 mg/kg) | bloodstream infection ([3]; caspofungin 5 mg/kg i.p. daily) | bloodstream infection ([3]; caspofungin 20 mg/kg i.p. daily) | change in GI burden ([4]; caspofungin 0.5 mg/kg i.p. daily) | change in GI burden ([4]; caspofungin 5 mg/kg i.p. daily) | decrease in average GI burden ([4]; caspofungin 20 mg/kg i.p. daily from day 3, following 5 days of treatment, 10 mice per group) [log] | GI burden after rebound to baseline ([4]; caspofungin 20 mg/kg i.p. daily, by day 11) | decrease in fecal burden ([4]; following 4 days of 20 mg/kg caspofungin) [log] | average decrease of colonization levels throughout the GI tract ([4]; following 4 days of 20 mg/kg caspofungin, one mouse per condition) [log] | effect on caspofungin-resistant colony frequency [5] | effect on killing by caspofungin [6] |
| --- | --- | --- | --- | --- | --- | --- | --- | --- | --- | --- | --- | --- | --- | --- | --- | --- | --- | --- | --- |
| CC[C@H](C)C[C@H](C)CCCCCCCCC(=O)N[C@H]1C[C@@H](O)[C@@H](NCCN)NC(=O)[C@@H]2[C@@H](O)CCN2C(=O)[C@H]([C@H](O)CCN)NC(=O)[C@H]([C@H](O)[C@@H](O)c2ccc(O)cc2)NC(=O)[C@@H]2C[C@@H](O)CN2C(=O)[C@H]([C@@H](C)O)NC1=O [caspofungin] | 2 | 3800 | 9100 | 36200 | 22200 | 8 | 4 | minimal decrease and faster recovery to baseline | decreased by 16 h and then returned to original baseline levels by 48 h | no isolates were recovered from the blood | no isolates were recovered from the blood | unchanged | unchanged | ~2.5 | ~1 × 10^8 CFU/g of stool | 2.8 | 2.7 |  |  |
| C[C@@H]([C@H](N)C(=O)N[C@H](C(=O)O)[C@H]1O[C@@H](n2ccc(=O)[nH]c2=O)[C@H](O)[C@@H]1O)[C@H](O)c1ccc(O)cn1 [nikkomycin, nikkomycin Z] |  |  |  |  |  |  |  |  |  |  |  |  |  |  |  |  |  | reduced the frequency of caspofungin-resistant mutants | increased the killing ability of caspofungin |
